# Columns and labels:
# Polθ ATPase = target: T1, Polθ ATPase (Homo sapiens, UniProt O75417); assay: Polθ ATPase activity assay (ADP-Glo Kinase Assay kit); assay type: biochemical; conditions: truncated POLQ-N protein (aa 1-894) 1 nM, 50 nM ssDNA, 50 µM ATP
# T1 construct: purified truncated POLQ-N protein (aa 1-894, N-terminal 6-His tag); 6-His (N)
# Protocol: The inhibitory efficiency of the compounds of formula (I) against Polθ ATPase activity was determined using the ADP-Glo Kinase Assay kit (Promega, V9101). […] The starting (final) concentration was 100 nM, followed by a 3-fold serial dilution for a total of 10 concentration points in duplicate (n=2). 5 μL of purified […], N-terminal 6-His tag) was added to each well. After centrifugation at 1000 rpm for 1 minute, the plate was incubated at 25°C for 10 minutes. 5 μL of substrate reaction solution (containing ATP & ssDNA) was added to each well, and the reaction was carried out at 25°C for 60 minutes. 5 μL of ADP-Glo Reagent was added to each well. After centrifugation at 1000 rpm for 1 minute, the plate was incubated at 25°C for 40 minutes. 10 μL of detection solution was added to each well. After centrifugation at 1000 rpm for 1 minute, the plate was incubated at 25°C for 40 minutes. Luminescence signals were recorded using a microplate reader (BMG, PHERAstar FSX). The final reaction system contained 1 nM of POLQ-N enzyme; 50 nM of ssDNA ([NT]); 50 μM of ATP; and 1% DMSO. The inhibition percentage (%) of the compound at each concentration was calculated using the RFU values normalized against the control wells within each assay plate. Table 1: Inhibitory activity of compounds against Polθ ATPase
# DLD-1 BRCA2-/- cells = assay: DLD-1 BRCA2-/- cell proliferation assay (CellTiter-Glo, 10 days incubation); assay type: cell-based; conditions: Homo sapiens, 240 h, DLD-1 BRCA2-/- cell line, total incubation period of 10 days, read-out: DLD1 BRCA2^-/- IC50
# Excerpt: The anti-proliferative effect of the compounds on the human colorectal adenocarcinoma cell line DLD-1 BRCA2^-/- method.
# • DLD-1 (purchased from ATCC, Cat. No.: CCL-221, Batch No.: 70033255); • RPMI1640 (purchased from Invitrogen, Cat. No.: 11875-085); • 0.25% Trypsin-EDTA (purchased from Invitrogen, Cat. No.: 25200-072); • Penicillin-Streptomycin solution (purchased from Hyclone, Cat. No.: SV30010); • FBS (purchased from BI, Cat. No.: 04-002-1A); • DMSO (purchased from Sigma, Cat. No.: D4540-1L); • 96-well plate (purchased from Corning, Cat. No.: CLS3903); • CellTiter-Glo reagent (purchased from Promega, Cat. No.: G7558).
# The anti-proliferative effect of the compounds on a human colorectal adenocarcinoma cell line was evaluated using an ATP quantification method, wherein the measured activity correlates well with the number of viable cells. The genetically edited cell line DLD-1 BRCA2^-/- was cultured in RPMI 1640 medium (Invitrogen, 11875-085) supplemented with 10% (v/v) fetal bovine serum (BI, 04-002-1A). The cell line was cultured according to the standard instructions of the American Type Culture Collection (ATCC) and identified via short tandem repeat (STR) genotyping.
# In the proliferation assay, cells were harvested and resuspended in cell culture medium. Cell density was determined using a cell counter. An appropriate volume of cell suspension was aspirated from the centrifuge tube to prepare a plating working solution (150 cells/100 µL for the DLD-1 BRCA2^-/- cell line). 100 µL of the cell suspension was seeded into each well of a 96-well plate (Corning, 3603) and incubated overnight in an incubator. The diluted test compound solutions were added to the wells. On the fourth and seventh days of compound incubation, the medium was replaced with fresh culture medium, and the compounds were re-administered, for a total incubation period of 10 days. Following incubation, the cell culture plates were removed and equilibrated to room temperature. 100 µL of CellTiter-Glo (Promega, G7558) was added to each well, and the plate was incubated at room temperature for 30 minutes. Data were read using a microplate reader (PerkinElmer, Enspire) in 96-well luminescence mode. Data analysis, curve fitting, and reporting were performed using the dose-response one-site 205 model of IDBS XL fit. Table 2: Proliferation inhibitory activity of compounds against DLD-1 BRCA2-/- cells
# [1] = tested on: Theta-mediated end joining (TMEJ) process in HEK293T cells; assay: TMEJ reporter assay (NanoGlo luciferase); assay type: cell-based; conditions: Homo sapiens, HEK-293T, HEK293T cells electroporated with TMEJ substrate, 24 hours
# Protocol: The inhibitory effect of the compounds on the Theta-mediated end joining (TMEJ) process was evaluated.
# (1) HEK293T cells were cultured in DMEM supplemented with 10% heat-inactivated fetal bovine serum (FBS) and 1% penicillin-streptomycin (PS). (2) Prior to startup, the Neon transfection system was disinfected, and E2 and R buffers were equilibrated to room temperature. (3) Culture medium without antibiotics was pre-warmed. (4) Cells in the flask reaching 80-90% confluency were trypsinized, neutralized with culture medium, centrifuged, and counted. (5) For transfection using a 100 µL electroporation tip, 2 × 10^6 cells were taken, washed once with DPBS (without Mg^2+ and Ca^2+), centrifuged at 1000 rpm for 5 min, and the supernatant was discarded. The number of cells and volume may be increased as required. (6) The Neon system was set up; a Neon tube was inserted into the Neon pipette and E2 buffer was added. (7) 10 µg of TMEJ substrate was added to 100 µL of R solution; the volume may be increased as required. (8) Cells were resuspended in DNA buffer, and electroporation was initiated according to the following parameters:
# (9) The cells were loaded into antibiotic-free culture medium and mixed gently. (10) Steps (8)-(9) were repeated as necessary, and cells were seeded into 384-well plates at a density of 40,000 cells/well in 40 µL of culture medium. (11) The plates were incubated in a humidified CO2 incubator at 37°C for 24 hours. (12) NanoGlo reagent was warmed to room temperature, and NanoGlo buffer was mixed with the substrate at a ratio of 50:1. (13) The cell culture plates were equilibrated at room temperature for 10 minutes. (14) 40 µL of NanoGlo substrate buffer was added to each well, followed by shaking at 300 rpm for 3 minutes protected from light. (15) Signals were read via a BMG PHERAstar FSX.
# T1 sequence (O75417 1-894): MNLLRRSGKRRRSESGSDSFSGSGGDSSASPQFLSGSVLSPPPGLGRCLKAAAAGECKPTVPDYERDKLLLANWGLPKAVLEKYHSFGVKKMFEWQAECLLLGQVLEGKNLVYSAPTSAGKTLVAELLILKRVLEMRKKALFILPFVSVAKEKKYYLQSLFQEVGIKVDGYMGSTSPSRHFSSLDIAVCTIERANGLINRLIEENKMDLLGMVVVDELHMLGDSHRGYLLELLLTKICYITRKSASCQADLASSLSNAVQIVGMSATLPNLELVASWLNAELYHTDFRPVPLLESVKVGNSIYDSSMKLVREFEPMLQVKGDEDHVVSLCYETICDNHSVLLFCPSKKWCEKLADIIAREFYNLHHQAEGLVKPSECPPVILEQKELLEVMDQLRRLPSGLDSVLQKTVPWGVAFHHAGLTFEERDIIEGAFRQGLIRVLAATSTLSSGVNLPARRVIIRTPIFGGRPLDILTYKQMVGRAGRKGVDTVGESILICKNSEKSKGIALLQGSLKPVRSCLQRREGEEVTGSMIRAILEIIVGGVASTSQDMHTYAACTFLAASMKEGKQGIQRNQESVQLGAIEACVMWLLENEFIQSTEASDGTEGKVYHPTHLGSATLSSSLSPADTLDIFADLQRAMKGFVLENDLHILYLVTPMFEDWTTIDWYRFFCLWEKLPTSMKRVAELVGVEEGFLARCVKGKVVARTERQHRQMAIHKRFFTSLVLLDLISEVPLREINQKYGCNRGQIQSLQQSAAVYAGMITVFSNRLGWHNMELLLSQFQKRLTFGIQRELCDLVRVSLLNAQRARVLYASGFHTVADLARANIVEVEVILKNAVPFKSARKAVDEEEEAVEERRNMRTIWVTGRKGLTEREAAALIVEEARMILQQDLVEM
SMILES,IC50 (Polθ ATPase; class symbols) [nM],IC50 (Polθ ATPase; specific values) [nM],IC50 (DLD-1 BRCA2-/- cells) [nM],IC50 [1] [nM]
"[2H]c1c([2H])c([C@H](C)OC([2H])([2H])[2H])c([2H])c([2H])c1CS(=O)(=O)NC(=O)c1ccc(C([2H])([2H])[2H])cc1-c1cc(Cl)ncc1OC [cpd-22, (S)-2-(2-Chloro-5-methoxypyridin-4-yl)-N-(4-(1-(methoxy-d3)ethyl)(phenyl-2,3,5,6-d4)methylsulfonyl)-4-(methyl-d3)benzamide]",≤ 2,1.1,48,1.3
"COc1ccc(C(F)F)cc1-c1cc(CC(=O)N(C)C)ccc1C(=O)NS(=O)(=O)Cc1ccc(C(C)C)cc1 [cpd-11, 5'-(Difluoromethyl)-5-(2-(dimethylamino)-2-oxoethyl)-N-((4-isopropylbenzyl)sulfonyl)-2'-methoxy-[1,1'-biphenyl]-2-carboxamide]",≤ 2,0.53,99,2
"[2H]C([2H])([2H])O[C@@H](C)c1ccc(CS(=O)(=O)NC(=O)c2ccc(C([2H])([2H])[2H])cc2-c2cc(C(F)F)c(F)cc2OC)cc1 [cpd-21, (S)-5'-(Difluoromethyl)-4'-fluoro-2'-methoxy-N-((4-(1-(methoxy-d3)ethyl)benzyl)sulfonyl)-5-(methyl-d3)-[1,1'-biphenyl]-2-carboxamide]",≤ 2,1.5,5.2,2.3
"COc1cnc(C(F)F)cc1-c1cc(C)ccc1C(=O)NS(=O)(=O)Cc1ccc([C@H](C)OC)cc1 [cpd-4, (S)-2-(2-(Difluoromethyl)-5-methoxypyridin-4-yl)-N-((4-(1-methoxyethyl)benzyl)sulfonyl)-4-methylbenzamide]",≤ 2,0.65,17,1
"[2H]C([2H])([2H])Oc1cnc(C(F)F)cc1-c1cc(C([2H])([2H])[2H])ccc1C(=O)NS(=O)(=O)Cc1ccc([C@H](C)OC([2H])([2H])[2H])cc1 [cpd-18, (S)-2-(2-(Difluoromethyl)-5-(methoxy-d3)pyridin-4-yl)-N-((4-(1-(methoxy-d3)ethyl)benzyl)sulfonyl)-4-(methyl-d3)benzamide]",≤ 2,1.4,17,1.3
